Publication PMC12195648 (Pharmaceuticals, 2025)

Experiments:
Bcr-Abl = details: cited from earlier work; for pIC50 Exp: 58-purine 3D-QSAR database, Table S3; for IC50: earlier purines of the group
KCL22 cells = assay: Cytotoxicity, resazurin assay, KCL22; type: cell-based, human; details: Homo sapiens, KCL-22; 72 h, resazurin, GI50 ± SD
Procedure: (§1) The development of the KCL22 subclone B8 (T315I, 100%) has been previously detailed. All cell lines were maintained in a humidified incubator at 37 °C and 5% CO2, following the manufacturer’s instructions, in the appropriate medium supplemented with 10% foetal bovine serum, penicillin (100 IU/mL), streptomycin (100 µg/mL), and glutamine (4 mM).
(§2) Cytotoxicity was assessed utilizing resazurin, an indicator dyes that measures oxidation-reduction reactions in the mitochondria of living cells. Cells were seeded into 96-well plates and treated with the compounds for 72 h (six different doses of each compound, in triplicate).

K562 cells = assay: Cytotoxicity, resazurin assay, K562; type: cell-based, human; details: Homo sapiens, K562; 72 h, resazurin, GI50 ± SD
Procedure: as §1, §2

HEK-293T cells = assay: Cytotoxicity, resazurin assay, non-neoplastic HEK-293T; type: cell-based; details: Homo sapiens, 72 h, GI50 ± SD
Procedure: as §1, with “The human cell line KCL22 was sourced from the German Collection of Microorganisms and Cell Cultures, while K562 and HEK-293T cells were obtained from the European Collection of Authenticated Cell Cultures. The” for “The”
Cytotoxicity was assessed utilizing resazurin, an indicator dyes that measures oxidation-reduction reactions in the mitochondria of living cells. Cells were seeded into 96-well plates and treated with the compounds for 72 h (six different doses of each compound, in triplicate). After treatment, a solution of resazurin (Merck, Prague, Czech Republic) was added for 4 h, and the fluorescence of resorufin corresponding to viable cell quantity was measured at 544 nm/590 nm (excitation/emission) using a Fluoroskan Ascent microplate reader (LabSystems, Helsinki, Finland).

SMILES | pIC50 Exp (Bcr-Abl) | further results
CN1CCN(c2ccc(Nc3nc(Nc4cccc(F)c4)c4ncn(CC5CC5)c4n3)cc2)CC1 [Compound 3] | 7.398 | –
CN1CCN(c2ccc(Nc3nc(Nc4ccc(F)c(F)c4)c4ncn(CC5CC5)c4n3)cc2)CC1 [Compound 4] | 7.398 | –
COc1cc(Nc2nc(Nc3ccc(N4CCN(C)CC4)cc3)nc3c2ncn3CC2CC2)c(OC)cc1Cl [Compound 5] | 4.444 | –
COc1cc(Cl)ccc1Nc1nc(Nc2ccc(N3CCN(C)CC3)cc2)nc2c1ncn2CC1CC1 [Compound 6] | 6.097 | –
CN1CCN(c2ccc(Nc3nc(Nc4ccccc4)c4ncn(CC5CC5)c4n3)cc2F)CC1 [Compound 7] | 6.237 | –
CN1CCN(c2ccc(Nc3nc(Nc4ccc(F)cc4)c4ncn(CC5CC5)c4n3)cc2F)CC1 [Compound 8] | 5.971 | –
CN1CCN(c2ccc(Nc3nc(Nc4cccc(F)c4)c4ncn(CC5CC5)c4n3)cc2F)CC1 [Compound 9] | 6.222 | –
CN1CCN(c2ccc(Nc3nc(Nc4ccc(F)c(F)c4)c4ncn(CC5CC5)c4n3)cc2F)CC1 [Compound 10] | 6.237 | –
COc1ccc(Nc2nc(Nc3ccc(N4CCN(C)CC4)c(F)c3)nc3c2ncn3CC2CC2)cc1 [Compound 11] | 6.469 | –
COc1cc(Cl)ccc1Nc1nc(Nc2ccc(N3CCN(C)CC3)c(F)c2)nc2c1ncn2CC1CC1 [Compound 13] | 5.074 | –
CN1CCN(c2ccc(Nc3nc(Nc4ccccc4F)c4ncn(CC5CC5)c4n3)cc2)CC1 [Compound 14] | 5.378 | –
CN1CCN(c2ccc(Nc3nc(Nc4cccc(C#N)c4)c4ncn(CC5CC5)c4n3)cc2)CC1 [Compound 15] | 7.155 | –
Cc1cccc(Nc2nc(Nc3ccc(N4CCN(C)CC4)cc3)nc3c2ncn3CC2CC2)c1 [Compound 16] | 7.000 | –
CN1CCN(c2ccc(Nc3nc(Nc4cccc(Cl)c4)c4ncn(CC5CC5)c4n3)cc2)CC1 [Compound 17] | 6.921 | –
CN1CCN(c2ccc(Nc3nc(Nc4cccc(C(F)(F)F)c4)c4ncn(CC5CC5)c4n3)cc2)CC1 [Compound 18] | 5.75 | –
CN1CCN(c2ccc(Nc3nc(Nc4cccc(OC(F)(F)F)c4)c4ncn(CC5CC5)c4n3)cc2)CC1 [Compound 19] | 5.939 | –
CN1CCN(c2ccc(Nc3nc(Nc4cccc([N+](=O)[O-])c4)c4ncn(CC5CC5)c4n3)cc2)CC1 [Compound 20] | 6.770 | –
CN1CCN(c2ccc(Nc3nc(Nc4ccc(OC(F)(F)F)cc4)c4ncn(CC5CC5)c4n3)cc2)CC1 [Compound 21] | 6.409 | –
CN1CCN(c2ccc(Nc3nc(Nc4ccc([N+](=O)[O-])cc4)c4ncn(CC5CC5)c4n3)cc2)CC1 [Compound 22] | 6.886 | –
CN1CCN(c2ccc(Nc3nc(Nc4ccc(C#N)cc4)c4ncn(CC5CC5)c4n3)cc2)CC1 [Compound 23] | 7.000 | –
COC(=O)c1ccc(Nc2nc(Nc3ccc(N4CCN(C)CC4)cc3)nc3c2ncn3CC2CC2)cc1 [Compound 24] | 7.398 | –
CN1CCN(c2ccc(Nc3nc(Nc4ccc(F)c(Cl)c4)c4ncn(CC5CC5)c4n3)cc2)CC1 [Compound 25] | 6.569 | –
CN1CCN(c2ccc(Nc3nc(Nc4ccc(Cl)c(Cl)c4)c4ncn(CC5CC5)c4n3)cc2)CC1 [Compound 26] | 7.155 | –
CN1CCN(c2ccc(Nc3nc(Nc4ccc(Cl)c(F)c4)c4ncn(CC5CC5)c4n3)cc2)CC1 [Compound 27] | 6.699 | –
CN1CCN(c2ccc(Nc3nc(Nc4ccc(OC(F)(F)F)c([N+](=O)[O-])c4)c4ncn(CC5CC5)c4n3)cc2)CC1 [Compound 28] | 6.357 | –
CN1CCN(C(=O)c2ccc(Nc3nc(Nc4ccccc4)c4ncn(CC5CC5)c4n3)cc2)CC1 [Compound 29] | 5.917 | –
CN1CCN(C(=O)c2ccc(Nc3nc(Nc4cccc(F)c4)c4ncn(CC5CC5)c4n3)cc2)CC1 [Compound 30] | 6.244 | –

SMILES | pIC50 Exp (Bcr-Abl) | further results
CN1CCN(C(=O)c2ccc(Nc3nc(Nc4ccc(F)c(F)c4)c4ncn(CC5CC5)c4n3)cc2)CC1 [Compound 31] | 6.027 | –
CCCCCCCCn1cnc2c(Nc3ccc(F)c(F)c3)nc(Nc3ccc(N4CCN(C)CC4)cc3)nc21 [Compound 32] | 4.063 | IC50 (Bcr-Abl): 86500 nM
CC(C)CCn1cnc2c(Nc3cccc(F)c3)nc(Nc3ccc(N4CCN(C)CC4)cc3)nc21 [Compound 34] | 4.301 | –
CCCCCn1cnc2c(Nc3ccccc3)nc(Nc3ccc(N4CCN(C)CC4)cc3)nc21 [Compound 35] | 5.910 | –
CC(C)CCn1cnc2c(Nc3ccccc3)nc(Nc3ccc(N4CCN(C)CC4)cc3)nc21 [Compound 36] | 5.750 | –
CCCCCn1cnc2c(Nc3ccc(F)c(F)c3)nc(Nc3ccc(N4CCN(C)CC4)cc3)nc21 [Compound 37] | 5.866 | –
CCCCCCn1cnc2c(Nc3ccccc3)nc(Nc3ccc(N4CCN(C)CC4)cc3)nc21 [Compound 38] | 5.008 | –
CCCCCCn1cnc2c(Nc3ccc(F)c(F)c3)nc(Nc3ccc(N4CCN(C)CC4)cc3)nc21 [Compound 40] | 4.469 | –
CCCCCn1cnc2c(Nc3cccc(F)c3)nc(Nc3ccc(N4CCN(C)CC4)cc3)nc21 [Compound 42] | 6.187 | –
CC(C)CCn1cnc2c(Nc3ccc(F)c(F)c3)nc(Nc3ccc(N4CCN(C)CC4)cc3)nc21 [Compound 43] | 5.642 | –
CN1CCN(c2ccc(Nc3nc(Nc4ccccc4)c4ccn(CC5CC5)c4n3)cc2)CC1 [Compound 44] | 4.206 | –
CN1CCN(Cc2ccc(Nc3nc(Nc4cccc(F)c4)c4ncn(CC5CC5)c4n3)cc2)CC1 [Compound 45] | 6.744 | –
CN1CCN(c2ccc(Nc3nc(N)c4ncn(CC5CC5)c4n3)cc2)CC1 [Compound 46] | 5.403 | –
CN1CCN(c2ccc(Nc3nc(NC4CCCCC4)c4ncn(CC5CC5)c4n3)cc2)CC1 [Compound 47] | 4.956 | –
CN1CCN(Cc2ccc(Nc3nc(Nc4ccc(F)c(F)c4)c4ncn(CC5CC5)c4n3)cc2)CC1 [Compound 48] | 6.649 | –
CN1CCN(c2ccc(Nc3nc(NCc4ccccc4)c4ncn(CC5CC5)c4n3)cc2)CC1 [Compound 49] | 6.076 | –
OCCN1CCN(c2ccc(Nc3nc(Nc4ccc(F)c(F)c4)c4ncn(CC5CC5)c4n3)cc2)CC1 [Compound 52] | 7.703 | –
CC(C)CCn1cnc2c(Nc3ccccc3)nc(Nc3ccc(N4CCN(CCO)CC4)cc3)nc21 [Compound 53] | 5.907 | –
CC(C)CCn1cnc2c(Nc3cccc(F)c3)nc(Nc3ccc(N4CCN(CCO)CC4)cc3)nc21 [Compound 54] | 6.886 | –
CC(C)CCn1cnc2c(Nc3ccc(F)c(F)c3)nc(Nc3ccc(N4CCN(CCO)CC4)cc3)nc21 [Compound 55] | 5.754 | –
CCCCCCn1cnc2c(Nc3ccccc3)nc(Nc3ccc(N4CCN(CCO)CC4)cc3)nc21 [Compound 56] | 6.081 | –
CCCCCCn1cnc2c(Nc3cccc(F)c3)nc(Nc3ccc(N4CCN(CCO)CC4)cc3)nc21 [Compound 57] | 6.174 | –
CCCCCCn1cnc2c(Nc3ccc(F)c(F)c3)nc(Nc3ccc(N4CCN(CCO)CC4)cc3)nc21 [Compound 58] | 5.775 | –
OCCN1CCN(c2ccc(Nc3nc(Nc4cccc(F)c4)c4ncn(CC5CC5)c4n3)cc2)CC1 [VII] | 7.833 | IC50 (Bcr-Abl): 15 nM
CN1CCN(c2ccc(Nc3nc(Nc4cccc(C#N)c4)c4ncn(CC5CC5)c4n3)cc2)CC1 [X] | – | IC50 (Bcr-Abl): 70 nM
Cc1ccc(NC(=O)c2ccc(CN3CCN(C)CC3)cc2)cc1Nc1nccc(-c2cccnc2)n1 [imatinib, reference compound] | – | GI50 (KCL22 cells): 9260 ± 1000 nM; GI50 (K562 cells): 230 ± 10 nM; GI50 (HEK-293T cells): > 10000 nM
